In ChEMBL document CHEMBL2074121, “Human dipeptide transporter, hPEPT1, stably transfected into Chinese hamster ovary cells” (Pharm Res, 1996):
Where a SMILES comes first, the peptide text is derived from it.

Each molecule was assayed against T1, Solute carrier family 15 member 1 (Homo sapiens, UniProt P46059) (assay: TP_TRANSPORTER: inhibition of Gly-Sar uptake (Gly-Sar: 25000 uM) in PEPT1-expressing CHO cells).
T1 sequence (P46059 whole entry): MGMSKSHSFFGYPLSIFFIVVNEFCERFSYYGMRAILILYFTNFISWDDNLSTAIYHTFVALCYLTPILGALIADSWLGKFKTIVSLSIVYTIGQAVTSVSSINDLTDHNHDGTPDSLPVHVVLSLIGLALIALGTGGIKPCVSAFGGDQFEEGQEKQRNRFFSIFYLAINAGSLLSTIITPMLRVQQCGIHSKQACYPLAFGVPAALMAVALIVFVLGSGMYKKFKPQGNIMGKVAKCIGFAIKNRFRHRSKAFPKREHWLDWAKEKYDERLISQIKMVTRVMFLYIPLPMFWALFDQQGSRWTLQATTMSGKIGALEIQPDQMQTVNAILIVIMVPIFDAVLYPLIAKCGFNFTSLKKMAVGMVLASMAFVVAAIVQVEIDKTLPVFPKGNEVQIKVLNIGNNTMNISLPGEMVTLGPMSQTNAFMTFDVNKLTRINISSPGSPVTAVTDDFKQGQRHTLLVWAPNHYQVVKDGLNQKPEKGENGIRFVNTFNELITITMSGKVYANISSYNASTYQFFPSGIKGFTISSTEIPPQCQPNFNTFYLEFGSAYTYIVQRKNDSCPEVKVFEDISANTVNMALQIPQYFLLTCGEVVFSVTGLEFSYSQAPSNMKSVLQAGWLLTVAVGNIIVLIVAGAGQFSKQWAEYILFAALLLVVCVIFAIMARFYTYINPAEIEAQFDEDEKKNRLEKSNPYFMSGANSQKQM
Type: functional, cell-based
Work on `CC1(C)S[C@@H]2[C@H](NC(=O)[C@H](N)c3ccccc3)C(=O)N2[C@H]1C(=O)O` [AMPICILLIN] yielded an IC50 of 10000 µM.
Work on `C[C@H](N)C(=O)N[C@@H](C)C(=O)O` (H-Ala-Ala-OH) yielded an IC50 of 63 µM.
`NCC(=O)NCC(=O)NCC(=O)O` was tested, and the IC50 was 1400 µM.
